Results taken from US10059695B2, “Cot modulators and methods of use thereof” (Gilead Sciences, Inc., priority 2016, dated 2018).

Tests used:
Human Cot = Human Cot (Homo sapiens (Human), UniProt P41279); assay: High Throughput Cot Biochemical Assay (KinEASE TR-FRET); conditions: recombinant human Cot catalytic domain, 400 μM ATP
Experimental: Example 24: High Throughput Cot Biochemical Assay
Human Cot enzyme activity was measured using KinEASE (Cisbio), a time-resolved fluorescence resonance energy transfer (TR-FRET) immunoassay. In this assay, Cot-catalyzes the phosporylation of a XL665-labeled peptide substrate. Europium conjugated […] specific antibody binds the resulting phosphorylated peptide. Formation of phosphorylated peptide is quantified by TR-FRET with Europium as the donor and XL665 the acceptor in a 2-step endpoint assay. Purified recombinant human Cot catalytic domain (30-397 amino acids) was purchased from Carna Biosciences. In brief, test compounds serially diluted in DMSO were delivered into Proxy white, low volume, 384 well plates using the Echo 550 acoustic liquid dispenser (Labcyte®). Cot enzyme and substrates were dispensed into assay plates using a Multi-Flo (Bio-Tek Instruments). The standard 5 μL reaction mixture contained 400 μM ATP, 1 μM STK3 peptide, 5 nM of Cot in reaction buffer (10 mM MOPS, pH 7.0, 0.02% NaN3, 0.5 mg/mL BSA, 10 mM MgOAc, 1 mM DTT, 0.025% NP-40, 1.5% glycerol) and 0.1% DMSO. After 2.5 hrs of incubation at room temperature, 5 μL of Stop and Detect Solution (1:200 Europium Cryptate labeled anti-phosphorylated peptide antibody solution and 125 nM strepavidin-XL665 Tracer in a 50 mM Hepes pH 7.0 detection buffer containing sufficient EDTA) was added. The plate was then further incubated for 120 minutes at room temperature and read using an Envision 2103 Multilabeled reader (PerkinElmer) with excitation/emission/FRET emission at 340 nm/615 nm/665 nm, respectively. Fluorescence intensities at 615 nm and 665 nm emission wavelengths were expressed as a ratio (665 nm/615 nm).

TNFα = assay: Cot Monocyte TNFα Cell Based Assay; conditions: LPS-stimulated cryopreserved human monocytes, TNFα by TR-FRET
Experimental: Example 23: Cot Monocyte TNFα Cell Based Assay
Cryopreserved human monocytes (Stem Cell Technologies) were thawed, diluted in RPMI with Glutamax (10 mM HEPES, 1× Pen-Strep, 55 μM β-mercaptoethanol, 1 mM Sodium pyruvate) media containing 10% FBS to 0.125×10^6 cells/ml and recovered at 37° C. for 2 hours. The cell suspension was then plated at a density of 5,000 cells/well onto black 384 well Greiner clear bottom plates. Plates were pre-spotted with test compounds and serially diluted in DMSO where 200 nL/well were delivered using the Echo 550 acoustic liquid dispenser (Labcyte®) for a final DMSO concentration of 0.5%. Plated cells were treated with compound for 1 hour at 37° C. Cells were then stimulated with 50 μg/ml of LPS (Sigma) excluding outside columns of plate used for unstimulated cell control wells. Cells were incubated for an additional 4 hours at 37° C. Cells were then spun out of the media and 5 μl of sample were taken and analyzed for total TNFα content using the TR-FRET Human TNFα detection system (CisBio). This system utilizes two labeled antibodies (cryptate and XL665) that bind to two different epitopes of the TNFα molecule and produce FRET signal proportional to the concentration of TNFα in the sample. Detection antibodies are mixed 50:50 and 5 μL were dispensed into each well. Plates were covered with clear seals and incubated at room temp overnight. The following morning plates were read using an Envision 2103 Multilabeled reader (PerkinElmer) with excitation/emission/FRET emission at 340 nm/615 nm/665 nm, respectively. Fluorescence intensities at 615 nm and 665 nm emission wavelengths were expressed as a ratio (665 nm/615 nm). Percent of control was calculated as follows: % Control=100×(RatioSample−Ratio0% stimulation)/(Ratio100% Stimulation−Ratio0% Stimulation) where unstimulated cells (0% stimulation) were the negative control and stimulated cells (100% stimulation) were used as the positive control.

Chain of Human Cot (P41279 30-397): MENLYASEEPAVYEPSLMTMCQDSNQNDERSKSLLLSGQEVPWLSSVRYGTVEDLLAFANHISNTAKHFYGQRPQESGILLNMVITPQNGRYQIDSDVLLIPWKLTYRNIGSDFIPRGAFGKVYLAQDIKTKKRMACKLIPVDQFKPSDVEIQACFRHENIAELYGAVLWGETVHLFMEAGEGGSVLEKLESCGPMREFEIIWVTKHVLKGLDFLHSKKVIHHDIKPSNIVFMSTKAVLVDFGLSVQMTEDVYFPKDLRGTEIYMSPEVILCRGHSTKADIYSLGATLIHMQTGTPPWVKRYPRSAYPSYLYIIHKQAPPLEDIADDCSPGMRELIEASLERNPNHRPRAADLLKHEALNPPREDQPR

Row | SMILES | IC50 (Human Cot) | EC50 (TNFα)
1 | [2H][C@@](Nc1cc(C#N)c2ncnc(NCC(C)(C)C)c2c1)(c1cn(C2(C#N)CC2)nn1)c1ccccc1Cl [I-20, (S)-6-(((2-chlorophenyl)(1-(1-cyanocyclopropyl)-1H-1,2,3-triazol-4-yl)methyl-d)amino)-4-(neopentylamino) quinazoline-8-carbonitrile] | 0.0033 µM | 0.035 µM
2 | [2H]C(Nc1ccc2ncnc(NC(CC#N)c3ccccc3)c2c1)(c1ccc(F)cc1)c1cn(C2CC2)nn1 [I-5, 3-((6-(((S)-(1-cyclopropyl-1H-1,2,3-triazol-4-yl)(4-fluorophenyl)methyl-d)amino)quinazolin-4-yl)amino)-3-phenylpropanenitrile] | 0.053 µM | 2.5 µM
3 | [2H][C@@](Nc1cc(Cl)c2ncnc(NCC(C)(C)C)c2c1)(c1cn(C2CC2)nn1)c1ccccc1Cl [I-9, (S)-8-chloro-N6-((2-chlorophenyl)(1-cyclopropyl-1H-1,2,3-triazol-4-yl)methyl-d)-N4-neopentylquinazoline-4,6-diamine] | 0.0048 µM | 0.086 µM
4 | Cn1ccc2c([C@H](Nc3cc(Cl)c4ncnc(NCC(C)(C)C)c4c3)c3cn(C45CC(C4)C5)nn3)cccc2c1=O [I-27, (S)-5-((1-(bicyclo[1.1.1]pentan-1-yl)-1H-1,2,3-triazol-4-yl)((8-chloro-4-(neopentylamino)quinazolin-6-yl)amino)methyl)-2-methylisoquinolin-1(2H)-one] | 0.0017 µM | 0.0121 µM
5 | CC(C)(C)CNc1ncnc2c(Br)cc(N[C@H](c3cn(C4(C(F)(F)F)CC4)nn3)c3cccc4ncsc34)cc12 [I-18, (S)-N^6-(benzo[d]thiazol-7-yl(1-(1-(trifluoromethyl)cyclopropyl)-1H-1,2,3-triazol-4-yl)methyl)-8-bromo-N^4-neopentylquinazoline-4,6-diamine] | 0.008 µM | 0.195 µM
6 | CC(C)(C)CNc1ncnc2ccc(N[C@H](c3cn(C4CC4)nn3)c3ccccc3Cl)cc12 [I-8, (S)-N^6-((2-chlorophenyl)(1-cyclopropyl-1H-1,2,3-triazol-4-yl)methyl)-N^4-neopentylquinazoline-4,6-diamine] | 0.013 µM | 0.169 µM
7 | [2H][C@](Nc1cc(C#N)c2ncnc(NCC(C)(C)C)c2c1)(c1ccc(F)cc1)c1cn(C2CC2)nn1 [I-14, (S)-6-(((1-cyclopropyl-1H-1,2,3-triazol-4-yl)(4-fluorophenyl)methyl-d)amino)-4-(neopentylamino) quinazoline-8-carbonitrile] | 0.0021 µM | 0.042 µM
8 | [2H][C@](Nc1ccc2ncnc(N[C@H](CC)c3ccccc3)c2c1)(c1ccc(F)cc1)c1cn(C2CC2)nn1 [I-4, N^6-((S)-(1-cyclopropyl-1H-1,2,3-triazol-4-yl)(4-fluorophenyl)methyl-d)-N^4-((R)-1-phenylpropyl) quinazoline-4,6-diamine] | 0.043 µM | 0.796 µM
9 | Cn1ccc2c([C@H](Nc3cc(Cl)c4ncnc(NCC(C)(C)C)c4c3)c3cn(C4(C(F)F)CC4)nn3)cccc2c1=O [I-25, (S)-5-(((8-chloro-4-(neopentylamino)quinazolin-6-yl)amino)(1-(1-(difluoromethyl)cyclopropyl)-1H-1,2,3-triazol-4-yl)methyl)-2-methylisoquinolin-1(2H)-one] | 0.0024 µM | 0.0255 µM
10 | [2H][C@](Nc1cc(Cl)c2ncnc(N[C@H](CCC#N)c3ccccc3)c2c1)(c1ccc(F)cc1)c1cn(C2(C(F)(F)F)CC2)nn1 [I-12, (R)-4-((8-chloro-6-(((S)-(4-fluorophenyl)(1-(1-(trifluoromethyl)cyclopropyl)-1H-1,2,3-triazol-4-yl)methyl-d)amino)quinazolin-4-yl)amino)-4-phenylbutanenitrile] | 0.137 µM | > 1 µM
11 | Cc1c(C#N)cccc1[C@H](Nc1cc(Cl)c2ncnc(NCC(C)(C)C)c2c1)c1cn(C2(C(F)F)CC2)nn1 [I-23, (S)-3-(((8-chloro-4-(neopentylamino)quinazolin-6-yl)amino)(1-(1-(difluoromethyl)cyclopropyl)-1H-1,2,3-triazol-4-yl)methyl)-2-methylbenzonitrile] | 0.0016 µM | 

Further lines, results first:

Row | IC50 (Human Cot) | EC50 (TNFα) | SMILES
12 | 0.318 µM | 1.24 µM | Fc1ccc(Nc2ncnc3ccc(N[C@@H](c4ccc(Cl)cc4)c4cn(C5CCN(C6COC6)CC5)nn4)cc23)cc1Cl [II-8, (S)-N4-(3-chloro-4-fluorophenyl)-N6-((4-chlorophenyl)(1-(1-(oxetan-3-yl)piperidin-4-yl)-1H-1,2,3-triazol-4-yl)methyl) quinazoline-4,6-diamine]
13 | 0.284 µM |  | Fc1ccc(Nc2ncnc3ccc(N[C@@H](c4ccc(Cl)cc4)c4cn(C5COC5)nn4)cc23)cc1Cl [II-7, (S)-N^4-(3-chloro-4-fluorophenyl)-N^6-((4-chlorophenyl)(1-(oxetan-3-yl)-1H-1,2,3-triazol-4-yl)methyl) quinazoline-4,6-diamine]
14 | 0.0059 µM | 0.254 µM | CCN1CCC(n2cc([C@@H](Nc3cc(Cl)c4ncnc(Nc5ccc(F)c(Cl)c5)c4c3)c3ccccc3)nn2)CC1 [II-4, (S)-8-chloro-N^4-(3-chloro-4-fluorophenyl)-N^6-((1-(1-ethylpiperidin-4-yl)-1H-1,2,3-triazol-4-yl)(phenyl)methyl) quinazoline-4,6-diamine]
15 | 0.072 µM |  | CC(C)(C)N1CCC(n2cc([C@@H](Nc3ccc4ncnc(Nc5ccc(F)c(Cl)c5)c4c3)c3ccc(Cl)cc3)nn2)CC1 [II-5, (S)-N^6-((1-(1-(tert-butyl)piperidin-4-yl)-1H-1,2,3-triazol-4-yl)(4-chlorophenyl)methyl)-N^4-(3-chloro-4-fluorophenyl) quinazoline-4,6-diamine]
16 | 0.0083 µM | 0.337 µM | Fc1ccc(Nc2ncnc3c(Cl)cc(N[C@@H](c4ccccc4)c4cn(C5CCNCC5)nn4)cc23)cc1Cl [II-9, (S)-8-chloro-N4-(3-chloro-4-fluorophenyl)-N6-(phenyl(1-(piperidin-4-yl)-1H-1,2,3-triazol-4-yl)methyl) quinazoline-4,6-diamine]
17 | 0.049 µM |  | Fc1ccc(Nc2ncnc3ccc(N[C@@H](c4ccc(Cl)cc4)c4cn(C5CCNCC5)nn4)cc23)cc1Cl [II-6, (S)-N^4-(3-chloro-4-fluorophenyl)-N^6-((4-chlorophenyl)(1-(piperidin-4-yl)-1H-1,2,3-triazol-4-yl)methyl) quinazoline-4,6-diamine]
18 | 0.028 µM |  | Fc1ccc(Nc2ncnc3c(Cl)cc(NC(c4ccccc4)c4cn(C5CCNCC5)nn4)cc23)cc1Cl (stereo not drawn) [II-2, 8-chloro-N^4-(3-chloro-4-fluorophenyl)-N^6-(phenyl(1-(piperidin-4-yl)-1H-1,2,3-triazol-4-yl)methyl) quinazoline-4,6-diamine]
19 | 0.019 µM |  | CCN1CCC(n2cc(C(Nc3cc(Cl)c4ncnc(Nc5ccc(F)c(Cl)c5)c4c3)c3ccccc3)nn2)CC1 (stereo not drawn) [II-3, 8-chloro-N^4-(3-chloro-4-fluorophenyl)-N^6-((1-(1-ethylpiperidin-4-yl)-1H-1,2,3-triazol-4-yl)(phenyl)methyl) quinazoline-4,6-diamine]
20 | 8.48 µM |  | O=C(OCc1ccccc1)N1CCC(n2cc(C(Nc3cc(Cl)c4ncnc(Nc5ccc(F)c(Cl)c5)c4c3)c3ccccc3)nn2)CC1 (stereo not drawn) [II-1, benzyl 4-(4-(((8-chloro-4-((3-chloro-4-fluorophenyl)amino)quinazolin-6-yl)amino)(phenyl)methyl)-1H-1,2,3-triazol-1-yl)piperidine-1-carboxylate]
